The values below come from ChEMBL document CHEMBL1129052, “2-[(2-Aminobenzyl)sulfinyl]-1-(2-pyridyl)-1,4,5,6-tetrahydrocyclopent[d]imidazoles as a novel class of gastric H+/K+-ATPase inhibitors” (J Med Chem, 1996).

By pIC50 is commonly meant the negative decadic logarithm of the IC50, by convention in mol/L. As a reminder, the inhibition is the percentage by which the read-out fell short of the control.

For assay [1], the target named is Potassium-transporting ATPase (Sus scrofa, UniProt P19156). The experiment in a line: In vitro inhibition against H+/K+ ATPase from porcine gastric mucosal membrane vesicles. The class given is tissue-based, Gastric mucosa.
Potassium-transporting ATPase, sequence (P18434 whole entry): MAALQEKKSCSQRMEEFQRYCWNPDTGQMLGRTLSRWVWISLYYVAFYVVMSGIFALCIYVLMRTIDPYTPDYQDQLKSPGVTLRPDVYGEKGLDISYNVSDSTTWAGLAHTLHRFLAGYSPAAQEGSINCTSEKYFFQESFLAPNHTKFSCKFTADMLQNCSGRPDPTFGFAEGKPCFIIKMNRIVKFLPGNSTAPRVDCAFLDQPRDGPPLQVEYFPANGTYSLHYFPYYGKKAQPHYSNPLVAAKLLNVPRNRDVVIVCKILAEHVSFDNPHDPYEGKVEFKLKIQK
Potassium-transporting ATPase, sequence (P19156 whole entry): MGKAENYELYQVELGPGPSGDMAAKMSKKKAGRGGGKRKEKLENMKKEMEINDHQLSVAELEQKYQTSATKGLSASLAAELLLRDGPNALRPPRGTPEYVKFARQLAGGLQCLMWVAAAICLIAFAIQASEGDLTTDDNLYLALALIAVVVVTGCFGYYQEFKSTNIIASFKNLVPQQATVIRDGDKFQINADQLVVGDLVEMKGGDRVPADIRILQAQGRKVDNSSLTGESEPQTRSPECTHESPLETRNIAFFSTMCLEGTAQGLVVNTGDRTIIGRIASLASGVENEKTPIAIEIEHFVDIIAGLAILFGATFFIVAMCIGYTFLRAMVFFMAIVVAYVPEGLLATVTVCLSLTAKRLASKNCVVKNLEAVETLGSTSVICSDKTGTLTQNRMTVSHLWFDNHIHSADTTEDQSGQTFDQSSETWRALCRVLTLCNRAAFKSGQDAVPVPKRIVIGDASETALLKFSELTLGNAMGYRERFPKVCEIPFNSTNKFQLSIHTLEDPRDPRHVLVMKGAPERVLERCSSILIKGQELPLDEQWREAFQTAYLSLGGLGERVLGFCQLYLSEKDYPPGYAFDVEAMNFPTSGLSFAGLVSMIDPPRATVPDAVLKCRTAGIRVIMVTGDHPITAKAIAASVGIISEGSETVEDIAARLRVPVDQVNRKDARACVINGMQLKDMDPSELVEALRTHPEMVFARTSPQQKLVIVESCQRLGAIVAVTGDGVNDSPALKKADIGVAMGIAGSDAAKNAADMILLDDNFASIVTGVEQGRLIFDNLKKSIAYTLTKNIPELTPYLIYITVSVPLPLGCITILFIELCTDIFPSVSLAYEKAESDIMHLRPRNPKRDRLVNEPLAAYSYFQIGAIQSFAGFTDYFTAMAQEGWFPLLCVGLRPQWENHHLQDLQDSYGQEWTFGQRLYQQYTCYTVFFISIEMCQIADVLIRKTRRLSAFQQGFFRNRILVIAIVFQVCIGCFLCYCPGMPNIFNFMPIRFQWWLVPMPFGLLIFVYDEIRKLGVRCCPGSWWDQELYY
The target of assay [2] is Potassium-transporting ATPase (Rattus norvegicus) (UniProt P09626+P18598). The experiment in a line: Gastric antisecretory activity was tested in rats at 30 mg/kg, po expressed as the percentage of inhibition against the acid output of the control group. Also noted: dose 30 mg/kg. It counts as functional, organism-based.

pIC50: −log10 of the molar value. Bounds are passed on as bounds.

In the case of `CN(C)c1ccccc1C[S+]([O-])c1nc2c(n1-c1ccccn1)CCCC2` (configuration not stated), in assay [1], the negative logarithm of the IC50 (pIC50) is 4.23. In addition, the inhibition in assay [2] was 12%. As for `Cc1cccnc1-n1ccnc1[S+]([O-])Cc1ccccc1N` (configuration not stated), the pIC50 in assay [1] was 4.01. In assay [2], this compound returned an inhibition of 98%. For `CN(C)c1ccccc1C[S+]([O-])c1nccn1Cc1ccccn1` (configuration not stated) the same measures were 4.34 and 100%. Take `CN(C)c1ccccc1C[S+]([O-])c1nccn1-c1ccc(Br)cn1` (configuration not stated): the inhibition in assay [2] stood at 0%. Compound `CNc1ccccc1C[S+]([O-])c1nccn1-c1ccccn1` (configuration not stated) had a pIC50 in assay [1] of 5.15. The compound also had an inhibition in assay [2] of 54%.

`CNc1ccccc1C[S+]([O-])c1nc2c(n1-c1ncccc1C)CCC2` (configuration not stated) gave a negative logarithm of the IC50 (pIC50) in assay [1] of 4.09. In assay [2], this compound came in with an inhibition of 90%. As to `COc1cccnc1-n1ccnc1[S+]([O-])Cc1ccccc1N` (configuration not stated), the pIC50 in assay [1] is 4.00. This compound displayed an inhibition in assay [2] of 79%.

Consider `COc1cccnc1-n1ccnc1[S+]([O-])Cc1ccccc1N(C)C` (configuration not stated), for which the pIC50 in assay [1] was 4.48. The same compound came in with an inhibition in assay [2] of 100%. With `CN(C)c1ccccc1C[S+]([O-])c1nc2c(n1Cc1ccccn1)CCC2` (configuration not stated), the pIC50 in assay [1] is 4.26. This compound also came in with an inhibition in assay [2] of 12%. Compound `CC(C)Oc1cccnc1-n1ccnc1[S+]([O-])Cc1ccccc1N(C)C` (configuration not stated) showed a pIC50 in assay [1] of 4.80. The compound also registered an inhibition in assay [2] of 69%.

Consider `CN(C)c1ccccc1C[S+]([O-])c1nc2c(n1-c1ccccc1)CCC2` (configuration not stated), for which, in assay [1], the negative-log IC50 (pIC50) was 4.17. For the same compound, in assay [2], the inhibition turned out to be 20%.

On to `CCNc1ccccc1C[S+]([O-])c1nccn1-c1ncccc1C` (configuration not stated), for which the negative-log IC50 (pIC50) in assay [1] is 4.74. This compound came in with an inhibition in assay [2] of 100%.

On to `CN(C)c1ccccc1C[S+]([O-])c1nc2c(n1-c1ccccn1)CCC2` (configuration not stated), for which the pIC50 in assay [1] is 4.49. In assay [2], this compound returned an inhibition of 97%. The compound `CN(C)c1ccccc1C[S+]([O-])c1nccn1-c1ccc([N+](=O)[O-])cn1` (configuration not stated) gave a pIC50 in assay [1] of 4.22. The same compound yielded an inhibition in assay [2] of 0%.

In assay [1], `CN(C)c1ccccc1C[S+]([O-])c1nccn1CCc1ccccn1` (configuration not stated) had a pIC50 of 4.36. This compound also registered an inhibition in assay [2] of 87%. In the case of `CN(C)c1ccccc1C[S+]([O-])c1nccn1-c1ccc(N)cn1` (configuration not stated), the pIC50 in assay [1] is 5.24. The inhibition in assay [2] turned out to be 48%. For `Cc1cccnc1-n1c([S+]([O-])Cc2ccccc2N(C)C)nc2c1CCC2` (configuration not stated), in that order: under 4.00 and 87%. In turn, `Cc1ccc(-n2ccnc2[S+]([O-])Cc2ccccc2N(C)C)nc1` (configuration not stated) gave a pIC50 in assay [1] of 4.36. Also, the inhibition in assay [2] was determined as 47%.

In assay [1], `CN(C)c1ccccc1C[S+]([O-])c1nccn1-c1ccc(Cl)cn1` (configuration not stated) had a pIC50 of 4.89. In assay [2], the inhibition worked out at 0%.

`CN(C)c1ccccc1C[S+]([O-])c1nccn1-c1nccc2ccccc12` (configuration not stated) gave a pIC50 in assay [1] of 4.37. In addition, in assay [2], the inhibition amounted to 65%.

Compound `CN(C)c1ccccc1C[S+]([O-])c1nccn1-c1ncccc1OCc1ccccc1` (configuration not stated) showed a pIC50 in assay [1] of 4.80. In assay [2], the inhibition was 34%.

Take `CN(C)c1ccccc1C[S+]([O-])c1nccn1-c1ccc(C#N)cn1` (configuration not stated): the negative logarithm of the IC50 (pIC50) in assay [1] is 4.46. In addition, the inhibition in assay [2] was found to be 0%. In the case of `CN(C)c1ccccc1C[S+]([O-])c1nccn1-c1ccccn1` (configuration not stated), the pIC50 in assay [1] was 5.26. In addition, the inhibition in assay [2] was found to be 76%.

In the case of `Nc1ccccc1C[S+]([O-])c1nccn1-c1ccccn1` (configuration not stated), in assay [1], the pIC50 was 4.57. For the same compound, the inhibition in assay [2] stood at 29%.

On to `CCN(CC)c1ccccc1C[S+]([O-])c1nc2c(n1-c1ccccn1)CCC2` (configuration not stated), for which the pIC50 in assay [1] was 4.96. The compound also had an inhibition in assay [2] of 98%.

`CC(=O)Nc1ccc(-n2ccnc2[S+]([O-])Cc2ccccc2N(C)C)nc1` (configuration not stated) had a pIC50 in assay [1] of 4.70. Also, in assay [2], the inhibition was found to be 64%. Regarding `CNc1ccccc1C[S+]([O-])c1nccn1-c1ncccc1C` (configuration not stated), in assay [1], the pIC50 is 5.12. Consider `Cc1ccnc(-n2ccnc2[S+]([O-])Cc2ccccc2N(C)C)c1` (configuration not stated), for which, in assay [1], the pIC50 is 5.60. Moreover, the inhibition in assay [2] is 79%. For `Cc1cc(C)nc(-n2ccnc2[S+]([O-])Cc2ccccc2N(C)C)c1` (configuration not stated) the same measures were 4.96 and 0%. `CN(C)c1ccccc1C[S+]([O-])c1nccn1-c1ccccc1` (configuration not stated) had a pIC50 in assay [1] of 4.17. Moreover, the inhibition in assay [2] stood at 9%. For `CCNc1ccccc1C[S+]([O-])c1nccn1-c1ncccc1OC` (configuration not stated) the same measures were 5.12 and 82%. With `CN(C)c1ccccc1C[S+]([O-])c1nccn1-c1cc(OCC(F)(F)F)ccn1` (configuration not stated), in assay [1], the pIC50 was 5.17. In assay [2], this compound registered an inhibition of 11%. Compound `Cc1cccnc1-n1ccnc1[S+]([O-])Cc1ccccc1N(C)C` (configuration not stated) had a pIC50 in assay [1] of 4.48. In assay [2], this compound came in with an inhibition of 100%.

On to `COc1ccc(-n2ccnc2[S+]([O-])Cc2ccccc2N(C)C)nc1` (configuration not stated), for which the pIC50 in assay [1] is 4.92. In assay [2], the inhibition worked out at 98%. In the case of `CNc1ccccc1C[S+]([O-])c1nccn1-c1ncccc1OC` (configuration not stated), in assay [1], the negative-log IC50 (pIC50) is 5.22. The inhibition in assay [2] came out at 83%. For `CCN(CC)c1ccccc1C[S+]([O-])c1nccn1-c1ccccn1` (configuration not stated) the same measures were 4.51 and 96%. For `COc1cc(C)nc(-n2ccnc2[S+]([O-])Cc2ccccc2N(C)C)c1` (configuration not stated), in that order: 5.47 and 59%. For `CN(C)c1ccccc1C[S+]([O-])c1ncc[nH]1` (configuration not stated) the same measures were 4.49 and 80%. Compound `CCN(CC)c1ccccc1C[S+]([O-])c1nccn1-c1ncccc1C` (configuration not stated) gave a pIC50 in assay [1] of 4.00. In assay [2], this compound yielded an inhibition of 100%. For `CN(C)c1ccccc1C[S+]([O-])c1nccn1Cc1ccccc1` (configuration not stated) the same measures were 4.85 and 72%. `COc1cccc(-n2ccnc2[S+]([O-])Cc2ccccc2N(C)C)n1` (configuration not stated): the pIC50 in assay [1] was 4.89. This compound also gave an inhibition in assay [2] of 0%. For `CN(C)c1ccccc1C[S+]([O-])c1nccn1-c1ccncc1` (configuration not stated) the same measures were 4.44 and 100%. Compound `CN(C)c1ccccc1C[S+]([O-])c1nccn1-c1ccc(C(F)(F)F)cn1` (configuration not stated) showed a pIC50 in assay [1] of 5.13. This compound showed an inhibition in assay [2] of 36%. For `COc1cccnc1-n1c([S+]([O-])Cc2ccccc2N(C)C)nc2c1CCC2` (configuration not stated), in that order: 4.02 and 73%.

In assay [1], `CC(=O)Oc1cccnc1-n1ccnc1[S+]([O-])Cc1ccccc1N(C)C` (configuration not stated) showed a pIC50 of 4.92. The compound also had an inhibition in assay [2] of 2%. `Cc1cc(Br)cnc1-n1ccnc1[S+]([O-])Cc1ccccc1N(C)C` (configuration not stated) gave a pIC50 in assay [1] of 4.30. This compound also gave an inhibition in assay [2] of 46%.

Take `COc1cnc(-n2ccnc2[S+]([O-])Cc2ccccc2N(C)C)cc1OC` (configuration not stated): in assay [1], the pIC50 is 4.92. For the same compound, in assay [2], the inhibition worked out at 13%. On to `Cc1cccc(-n2ccnc2[S+]([O-])Cc2ccccc2N(C)C)n1` (configuration not stated), for which, in assay [1], the pIC50 is 4.85. Further, the inhibition in assay [2] was determined as 57%. For `CN(C)c1ccccc1C[S+]([O-])c1nccn1C` (configuration not stated) the same measures were 4.49 and 98%. `CN(C)c1ccccc1C[S+]([O-])c1nccn1-c1ncccc1O` (configuration not stated) showed a pIC50 in assay [1] of 5.32. Moreover, the inhibition in assay [2] amounted to 1%. As to `COc1ccnc(-n2ccnc2[S+]([O-])Cc2ccccc2N(C)C)c1` (configuration not stated), the pIC50 in assay [1] was 5.59. Further, the inhibition in assay [2] amounted to 95%. Compound `CN(C)c1ccccc1C[S+]([O-])c1nc2c(n1Cc1ccccc1)CCC2` (configuration not stated) showed a pIC50 in assay [1] of 4.55. The same compound had an inhibition in assay [2] of 42%.
